The results in this text go back to patent EP2970215B1, “PYRROLIDINE DERIVATIVES, PHARMACEUTICAL COMPOSITIONS CONTAINING THEM, AND THEIR USE IN THERAPY” (AbbVie Deutschland GmbH & Co. KG, priority 2013, dated 2014).

In one test the target is T1, human GlyT1c transporter (Homo sapiens, UniProt P48067).
T1 construct: expressed in transfected cells; host or cells: CHO cells (recombinant; line hGlyT1c_5_CHO is named for the uptake assay)
T1 sequence (P48067 1-706): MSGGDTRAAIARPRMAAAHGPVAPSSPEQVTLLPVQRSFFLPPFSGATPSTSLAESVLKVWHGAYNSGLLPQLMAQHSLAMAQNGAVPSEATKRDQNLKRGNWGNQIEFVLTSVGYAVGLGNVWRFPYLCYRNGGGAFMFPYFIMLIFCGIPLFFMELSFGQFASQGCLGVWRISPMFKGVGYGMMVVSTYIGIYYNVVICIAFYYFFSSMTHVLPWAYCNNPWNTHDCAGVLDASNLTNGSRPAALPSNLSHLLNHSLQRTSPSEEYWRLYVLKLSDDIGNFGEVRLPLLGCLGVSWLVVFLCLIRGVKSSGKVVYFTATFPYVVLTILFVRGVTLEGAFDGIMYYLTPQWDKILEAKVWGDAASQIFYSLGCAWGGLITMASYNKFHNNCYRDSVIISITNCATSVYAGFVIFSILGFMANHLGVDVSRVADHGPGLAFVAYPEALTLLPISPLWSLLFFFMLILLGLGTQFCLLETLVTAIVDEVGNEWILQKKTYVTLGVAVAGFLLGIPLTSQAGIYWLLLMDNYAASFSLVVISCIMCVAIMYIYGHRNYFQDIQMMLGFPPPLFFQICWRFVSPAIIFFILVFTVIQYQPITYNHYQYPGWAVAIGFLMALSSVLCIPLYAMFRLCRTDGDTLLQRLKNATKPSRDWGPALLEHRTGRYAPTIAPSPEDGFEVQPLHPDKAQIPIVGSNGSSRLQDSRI
As to the kind of experiment: Radioligand binding assay using recombinant CHO cell membranes expressing human GlyT1. The note with it: radioligand binding to human GlyT1c transporter-expressing membranes. The source says:
2. Radioligand binding assays using recombinant CHO cell membranes expressing human GlyT1: […]
Turning to `CCS(=O)(=O)N1C[C@@H](NC(=O)c2cccc(C(F)(F)F)c2Cl)[C@H](c2ccccc2)C1` (relative stereo) [Example 124, 2-chloro-N-[trans-1-(ethylsulfonyl)-4-phenylpyrrolidin-3-yl]-3-(trifluoromethyl)benzamide], the inhibitory constant (Ki) was no more than 10 µM. The same measure, in the same setting: as for `Cn1cnc(S(=O)(=O)N2C[C@@H](CNc3cccc(CN)c3)[C@H](c3ccc(F)cc3)C2)c1` (relative stereo) [Example 365, 3-(Aminomethyl)-N-({Trans-4-(4-fluorophenyl)-1-[(1-methyl-1H-imidazol-4-yl)sulfonyl]pyrrolidin-3-yl}methyl)aniline], the figure is no more than 10 µM; as for `Cn1cnc(S(=O)(=O)N2C[C@@H](Nc3cccc(Cl)c3)[C@H](c3ccccc3Cl)C2)c1` (relative stereo) [Example 278, trans-4-(2-chlorophenyl)-N-(3-chlorophenyl)-1-[(1-methyl-1H-imidazol-4-yl)sulfonyl]pyrrolidin-3-amine], no more than 0.1 µM.

In the case of `Cn1cnc(S(=O)(=O)N2C[C@@H]([C@@H]3CCCOC3)[C@H](Nc3ccc(Cl)c(C(F)(F)F)c3)C2)c1` (relative stereo) [Example 792, Trans-N-[4-chloro-3-(trifluoromethyl)phenyl]-1-[(1-methyl-1H-imidazol-4-yl)sulfonyl]-4-[(3S)-tetrahydro-2H-pyran-3-yl]pyrrolidin-3-amine], the Ki was no more than 10 µM. For the molecule `Cn1cnc(S(=O)(=O)N2C[C@H](NCc3cccc(C(F)(F)F)n3)[C@@H](c3ccccc3)C2)c1` [Example 552], the inhibitory constant (Ki) is no more than 10 µM. Same read-out and setting: as for `Cn1cnc(S(=O)(=O)N2C[C@H](NCc3cccc4ccnn34)[C@@H](c3ccccc3)C2)c1` [Example 555, (3R,4S)-1-[(1-methyl-1H-imidazol-4-yl)sulfonyl]-4-phenyl-N-(pyrazolo[1,5-a]pyridin-7-ylmethyl)pyrrolidin-3-amine], the figure is no more than 10 µM; as for `CCOCCN[C@H]1CN(S(=O)(=O)c2cn(C)cn2)C[C@@H]1c1ccccc1` [Example 608, (3R,4S)-N-(2-ethoxyethyl)-1-[(1-methyl-1H-imidazol-4-yl)sulfonyl]-4-phenylpyrrolidin-3-amine], no more than 10 µM. For `Cn1cnc(S(=O)(=O)N2C[C@@H](O)[C@H](Nc3cccc(Cl)c3)C2)c1` (relative stereo) [Example 373, Trans-4-[(3-chlorophenyl)amino]-1-[(1-methyl-1H-imidazol-4-yl)sulfonyl]pyrrolidin-3-ol], the inhibition constant (Ki) is no more than 10 µM. Still for that read-out and setting: then `Cn1cnc(S(=O)(=O)N2C[C@H](Nc3cc(Cl)ncn3)[C@@H](c3ccc(F)cc3)C2)c1` [Example 691, 6-chloro-N-{(3R,4S)-4-(4-fluorophenyl)-1-[(1-methyl-1H-imidazol-4-yl)sulfonyl]pyrrolidin-3-yl}pyrimidin-4-amine], with no more than 0.1 µM; and `CC(CN[C@H]1CN(S(=O)(=O)c2cn(C)cn2)C[C@@H]1c1ccccc1)C(F)(F)F` (stereo partly drawn) [Example 566, (3R,4S)-1-[(1-methyl-1H-imidazol-4-yl)sulfonyl]-4-phenyl-N-(3,3,3-trifluoro-2-methylpropyl)pyrrolidin-3-amine], with no more than 10 µM; and `Cn1cnc(S(=O)(=O)N2C[C@@H](NC(=O)c3cccc(C(F)(F)F)c3Cl)[C@H](c3ccccc3F)C2)c1` (relative stereo) [Example 54, 2-chloro-N-{trans-4-(2-fluorophenyl)-1-[(1-methyl-1H-imidazol-4-yl)sulfonyl]pyrrolidin-3-yl}-3-(trifluoromethyl)benzamide], with no more than 1 µM. For `CCCS(=O)(=O)N1C[C@@H](NC(=O)c2cc(Cl)cc(Cl)c2)[C@H](c2ccccc2)C1` (relative stereo) [Example 126, 3,5-dichloro-N-[trans-4-phenyl-1-(propylsulfonyl)pyrrolidin-3-yl]benzamide], the Ki is no more than 10 µM. On the same count and under the same terms, then `Cn1cnc(S(=O)(=O)N2C[C@@H](NCc3ccc(Cl)cc3Cl)[C@H](c3ccccn3)C2)c1` (relative stereo) [Example 307, trans-N-(2,4-dichlorobenzyl)-1-[(1-methyl-1H-imidazol-4-yl)sulfonyl]-4-(pyridin-2-yl)pyrrolidin-3-amine], with no more than 0.1 µM; and `Cc1ccc(C(=O)N[C@@H]2CN(S(=O)(=O)c3cn(C)cn3)C[C@H]2c2ccccc2)cc1` (relative stereo) [Example 24, 4-methyl-N-{trans-1-[(1-methyl-1H-imidazol-4-yl)sulfonyl]-4-phenylpyrrolidin-3-yl}benzamide], with no more than 10 µM. The same measure, in the same setting: then `Cn1cnc(S(=O)(=O)N2C[C@H](NC(=O)CC3CC3)[C@@H](c3ccccc3)C2)c1` [Example 546, 2-cyclopropyl-N-{(3R,4S)-1-[(1-methyl-1H-imidazol-4-yl)sulfonyl]-4-phenylpyrrolidin-3-yl}acetamide], with no less than 10 µM; and `COc1nccc(N[C@H]2CN(S(=O)(=O)c3cn(C)cn3)C[C@@H]2c2ccccc2)n1` [Example 532, 2-methoxy-N-{(3R,4S)-1-[(1-methyl-1H-imidazol-4-yl)sulfonyl]-4-phenylpyrrolidin-3-yl}pyrimidin-4-amine], with no more than 10 µM. On to `Cn1cnc(S(=O)(=O)N2CC(Nc3cccnn3)C(c3ccc(F)cc3)C2)c1` (stereo not drawn) [Example 350, N-{4-(4-fluorophenyl)-1-[(1-methyl-1H-imidazol-4-yl)sulfonyl]pyrrolidin-3-yl}pyridazin-3-amine], for which the Ki is greater than 10 µM. The same measure, in the same setting: then `Cn1cnc(S(=O)(=O)N2C[C@@H](COc3cccc(Cl)c3)[C@H](c3ccc(F)cc3)C2)c1` (relative stereo) [Example 248, 4-{[trans-3-[(3-chlorophenoxy)methyl]-4-(4-fluorophenyl)pyrrolidin-1-yl]sulfonyl}-1-methyl-1H-imidazole], with no more than 1 µM. Regarding `Cn1cnc(S(=O)(=O)N2C[C@@H]([C@@H]3CCCOC3)[C@H](Nc3cccc(-c4ccccc4)c3)C2)c1` (mixture of isomers) [Example 787, trans-N-(biphenyl-3-yl)-1-[(1-methyl-1H-imidazol-4-yl)sulfonyl]-4-[(3S)-tetrahydro-2H-pyran-3-yl]pyrrolidin-3-amine], the Ki is no more than 1 µM. `Cn1cnc(S(=O)(=O)N2C[C@H](NCc3ccc(Cl)s3)[C@@H](c3ccc(F)cc3)C2)c1` [Example 393, (3R,4S)-N-[(5-chlorothiophen-2-yl)methyl]-4-(4-fluorophenyl)-1-[(1-methyl-1H-imidazol-4-yl)sulfonyl]pyrrolidin-3-amine]: the inhibition constant (Ki) was no more than 0.01 µM.

With `Cn1cnc(S(=O)(=O)N2C[C@@H](COc3cccc(C(F)(F)F)c3)[C@H](c3ccc(F)cc3)C2)c1` (relative stereo) [Example 293, 4-{[trans-3-(4-fluorophenyl)-4-{[3-(trifluoromethyl)phenoxy]methyl}pyrrolidin-1-yl]sulfonyl}-1-methyl-1H-imidazole], the Ki is no more than 0.1 µM. Consider `Cc1csc(CN[C@H]2CN(S(=O)(=O)c3cn(C)cn3)C[C@@H]2c2ccccc2)n1` [Example 454, (3R,4S)-1-[(1-methyl-1H-imidazol-4-yl)sulfonyl]-N-[(4-methyl-1,3-thiazol-2-yl)methyl]-4-phenylpyrrolidin-3-amine], for which the Ki is no more than 10 µM. The same measure, in the same setting: then `Cn1cnc(S(=O)(=O)N2CC(Nc3ccc(Cl)c(C(F)(F)F)c3)C(c3ncco3)C2)c1` (stereo not drawn) [Example 710, N-[4-chloro-3-(trifluoromethyl)phenyl]-1-[(1-methyl-1H-imidazol-4-yl)sulfonyl]-4-(1,3-oxazol-2-yl)pyrrolidin-3-amine], with no more than 1 µM; and `CCC(CC)CN[C@H]1CN(S(=O)(=O)c2cn(C)cn2)C[C@@H]1c1ccccc1` [Example 449, (3R,4S)-N-(2-ethylbutyl)-1-[(1-methyl-1H-imidazol-4-yl)sulfonyl]-4-phenylpyrrolidin-3-amine], with no more than 1 µM.

In the case of `COc1ccc(S(=O)(=O)N2C[C@@H](NC(=O)c3ccc(C(F)(F)F)cc3)[C@H](c3ccccc3)C2)cc1` (relative stereo) [Example 134, N-{trans-1-[(4-methoxyphenyl)sulfonyl]-4-phenylpyrrolidin-3-yl}-4-(trifluoromethyl)benzamide], the Ki is no more than 10 µM.

The same test, now with this note: radioligand binding, recombinant CHO cell membranes expressing human GlyT1c.
On to `Cn1cnc(S(=O)(=O)N2C[C@H](Nc3ccc4c(c3)N(Cc3ccccc3)CC4)[C@@H](c3ccccc3)C2)c1` [Example 826, 1-benzyl-N-{(3R,4S)-1-[(1-methyl-1H-imidazol-4-yl)sulfonyl]-4-phenylpyrrolidin-3-yl}-2,3-dihydro-1H-indol-6-amine], for which the Ki was no more than 10 µM. With `Cn1cnc(S(=O)(=O)N2C[C@@H](Nc3cccc(Cl)c3)[C@H](C3CCCCO3)C2)c1` (relative stereo) [Example 849, Trans-N-(3-chlorophenyl)-1-[(1-methyl-1H-imidazol-4-yl)sulfonyl]-4-(tetrahydro-2H-pyran-2-yl)pyrrolidin-3-amine], the Ki was no more than 0.1 µM.
